These results are taken from article PMC6222789, “CF3-Substituted Mollugin 2-(4-Morpholinyl)-ethyl ester as a Potential Anti-inflammatory Agent with Improved Aqueous Solubility and Metabolic Stability” (Molecules : A Journal of Synthetic Chemistry and Natural …, 2018).

Bounds are passed on as bounds.

Usually inhibition stands for how much of the control response was suppressed. One may read the IC50 as the concentration that inhibits the measured activity by half. What is called solubility is how much of the substance goes into solution per volume. A high value points to a readily soluble substance.

Series [1] has as its system IL-6-induced adhesion of U937 monocytic cells to HT-29 cells. The series can be described thus: IL-6-induced colonic epithelial cell adhesion assay. In kind it is cell-based, human. The note with it: Homo sapiens, Epithelial cell, 10 uM; U937 adhesion to HT-29 cells, IL-6-induced. The procedure:
(§1) Synthesized mollugin derivatives were subjected to the colonic epithelial cell adhesion assay, which mimics the initial stage of colon inflammation. The inhibition of TNF-α-induced or IL-6-induced adhesion of U937 monocytic cells to HT-29 cells in 10 μM solution of synthesized molecules was measured, and the results are summarized in Table 1 and Table 2. Mesalazine (2), a commercially available medication for the treatment of IBD, and mollugin were chosen as assay positive controls.
(§2) HT-29 human colonic epithelial cells and U937 human pre-monocytic cells were grown in RPMI 1640 medium supplemented with 10% FBS, 100 IU/mL penicillin, and 100 µg/mL streptomycin in a humidified incubator under 5% CO2/95% air.
(§3) U937 monocytic cell adhesion to colonic epithelial cells was evaluated using human U937 pre-monocytic cells, which were prelabeled with 2′,7′-bis(2-carboxyethyl)-5(6)-carboxyfluorescein acetoxymethyl ester (BCECF/AM, 10 μg/mL) for 1 h at 37 °C. HT-29 cells cultured in 24-well plates were pretreated with test compound, 5-ASA, or tofacitinib for 1 h prior to incubation with TNF-α (10 ng/mL) and IL-6 (5 ng/mL) for an additional 3 h. Cells were then co-incubated with BCECF/AM-prelabeled U937 cells (1 × 10^6 cells/well) for 30 min at 37 °C. Non-adhering U937 cells were removed, and the HT-29 cells and adherent U937 cells were washed twice with PBS. Images were captured and processed with a Nikon ECLIPSE TE2000-U microscope and NIS-Elements F software (Nikon, Tokyo, Japan). For quantitative analysis, other sets of cells were lysed in 0.1% Triton X-100 in Tris (0.1 M), and the fluorescence was measured using a fluorescence-detecting microplate reader (Promega , Madison, WI, USA) at […]. Experiments were performed in triplicate and repeated at least three times independently.

The next series concerns the target T1, CYP2C9 (Homo sapiens, UniProt P11712).
T1 construct: from tissue; host or cells: human liver microsomes
Put plainly: CYP inhibition assay, CYP2C9. Type of series: in vitro ADME. The note with it: for CYP Inhibition (% of Control) 2C9: 10 μM, CYP activity in presence of inhibitor as % of control, human liver microsomes. The procedure: (§4) All incubations were performed in duplicate, and the mean values were used for analysis. The assays of phenacetin O-deethylase, tolbutamide 4-hydroxylase, S-mephenytoin 4-hydroxylase, dextromethorphan O-demethylase and midazolam 1′-hydroxylase activities were determined as probe activities for CYP1A2, CYP2C9, CYP2C19, CYP2D6 and CYP3A, respectively, using cocktail incubation and tandem mass spectrometry. Briefly, incubation reaction was performed with 0.25 mg/mL human liver microsomes in a final incubation volume of 100 μL. The incubation medium contained 100 mM phosphate buffer (pH 7.4) with probe substrates. The incubation mixture containing various inhibitors (10 μM) was pre-incubated for 5 min. After pre-incubation, an NADPH regenerating system was added. After incubation at 37 °C for 15 min, the reaction was stopped by placing the incubation tubes on ice and adding 40 μL of ice-cold acetonitrile. The incubation mixtures were then centrifuged at 10,000× g for 5 min at 4 °C. Aliquots of the supernatant were injected onto an LC-MS/MS system. The CYP-mediated activities in the presence of inhibitors were expressed as percentages of the corresponding control values.
(In general: Liver microsomes are vesicles of endoplasmic reticulum, rich in cytochrome P450 enzymes.)

The next series has as its target T2, CYP2D6 (Homo sapiens, UniProt P10635).
T2 construct: from tissue; host or cells: human liver microsomes
The series can be described thus: CYP inhibition assay, CYP2D6. In kind it is in vitro ADME. The note with it: for CYP Inhibition (% of Control) 2D6: 10 μM, CYP activity in presence of inhibitor as % of control, human liver microsomes. As to the method:
as §4

The target of another series is T3, CYP2C19 (Homo sapiens, UniProt P33261).
T3 construct: from tissue; host or cells: human liver microsomes
The series can be described thus: CYP inhibition assay, CYP2C19. In kind it is in vitro ADME. The settings on record: for CYP Inhibition (% of Control) 2C19: 10 μM, CYP activity in presence of inhibitor as % of control, human liver microsomes. As to the method: as §4

The target of a further series is T4, hERG channel (Homo sapiens, UniProt Q12809).
T4 construct: purchased Invitrogen PV5365
Put plainly: hERG channel binding assay (fluorescence polarization). As to the method: hERG channel binding assay was performed using Invitrogen’s hERG Fluorescence Polarization Assay kit (PV5365) with Synergy Neo plate reader (BioTek, Winooski, VT, USA). The binding assay was carried out according to the kit manufacturer’s instructions.

The nature of series [2]: Metabolic stability, dog liver microsomes. Type of series: in vitro ADME. The note with it: 30 min, 1 μM. The procedure:
(§5) Pooled human liver microsomes (150 donor) and dog, rat, mouse liver microsomes were obtained from BD Gentest Co. (Woburn, MA, USA). NADPH regeneration system was obtained from Promega. S-Mephenytoin, 4-hydroxymephenytoin, and 1’-hydroxymidazolam were purchased from Ultrafine Chemical Co. (Manchester, UK). All other chemicals and solvents were of the highest grade available. The metabolic stability assay was performed by incubation of human or selected animal liver microsomes (most often dog, rat and mouse), at 37 °C with a test compound at a final concentration of 1 μM, in the presence of 0.5 mg/mL microsomal protein and NADPH regeneration system, in a total volume of 100 μL of 100 mM phosphate buffer, pH 7.4. The incubation was started by the addition of NADPH regeneration system and terminated with 40 μL of ice-cold acetonitrile at 0 and 30 min. Precipitated proteins were removed by centrifugation at 10,000× g for 5 min at 4 °C. Aliquots of the supernatant were injected onto an LC-MS/MS system. Incubations terminated prior to the addition of NADPH regeneration system (time point 0 min) were used as standards, defined as 100%. Percent of the parent compound remaining was calculated by comparing peak area.

Series [3] concerns TNF-α-induced adhesion of U937 monocytic cells to HT-29 cells. Put plainly: TNF-α-induced colonic epithelial cell adhesion assay. Type of series: cell-based, human. The settings on record: Homo sapiens, Epithelial cell, 10 uM; U937 adhesion to HT-29 cells, TNF-α-induced. The procedure:
as §1, §2, §3

Series [4] is described as follows: Metabolic stability, human liver microsomes. Type of series: in vitro ADME. The settings on record: 1 μM. As to the method: as §5
Series [5] can be described thus: Determination of water solubility at 10 mM. Type of series: physicochemical. The note with it: aqueous buffer, thermodynamic from solid, sodium phosphate buffer 0.1 M, pH 7.4, room temperature. As to the method:
Water solubility (>10 mM) was determined using the following procedure at room temperature. The test compound was added to a vial containing sodium phosphate buffer, 0.1 M, pH 7.4 (1 mL) to make a 10 mM mixture, and the mixture was equilibrated during 10 min of sonication and then visually checked immediately and after 24 h for any undissolved parts or precipitation of the sample. If no precipitation was shown after 24 h, the aqueous solution was filtered (Syringe filter; PTFE; pore size: 0.45 μm; 25 mm DI) and subjected to LC-MS to confirm the reagent.

T3 sequence (P33261 whole entry): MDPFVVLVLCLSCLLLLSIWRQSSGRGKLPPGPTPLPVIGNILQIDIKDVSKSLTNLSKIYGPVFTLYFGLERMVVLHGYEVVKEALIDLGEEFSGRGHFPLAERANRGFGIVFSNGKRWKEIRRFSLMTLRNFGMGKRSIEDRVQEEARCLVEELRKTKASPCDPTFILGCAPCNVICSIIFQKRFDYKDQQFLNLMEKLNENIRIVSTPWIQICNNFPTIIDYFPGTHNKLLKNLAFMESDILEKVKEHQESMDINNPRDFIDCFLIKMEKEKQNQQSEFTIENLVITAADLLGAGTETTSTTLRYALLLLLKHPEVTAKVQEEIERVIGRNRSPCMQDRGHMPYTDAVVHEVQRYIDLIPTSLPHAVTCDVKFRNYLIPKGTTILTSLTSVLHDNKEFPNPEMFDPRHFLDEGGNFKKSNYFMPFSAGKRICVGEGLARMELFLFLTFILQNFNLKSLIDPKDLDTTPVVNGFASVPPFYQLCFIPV
T1 sequence (P11712 whole entry): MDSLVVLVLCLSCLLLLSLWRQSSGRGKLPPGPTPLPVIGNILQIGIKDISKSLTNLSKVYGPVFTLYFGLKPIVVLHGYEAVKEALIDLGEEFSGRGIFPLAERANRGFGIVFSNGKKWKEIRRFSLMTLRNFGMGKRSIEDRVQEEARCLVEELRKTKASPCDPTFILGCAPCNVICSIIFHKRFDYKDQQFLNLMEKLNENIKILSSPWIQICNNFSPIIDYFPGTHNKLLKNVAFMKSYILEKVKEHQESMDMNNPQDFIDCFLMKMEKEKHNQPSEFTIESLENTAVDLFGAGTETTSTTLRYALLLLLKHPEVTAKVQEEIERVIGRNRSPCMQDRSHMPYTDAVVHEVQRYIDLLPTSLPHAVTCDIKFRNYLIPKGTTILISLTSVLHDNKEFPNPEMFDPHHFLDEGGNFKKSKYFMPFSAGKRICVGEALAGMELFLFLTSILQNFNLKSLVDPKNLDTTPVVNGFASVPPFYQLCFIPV
T2 sequence (P10635 whole entry): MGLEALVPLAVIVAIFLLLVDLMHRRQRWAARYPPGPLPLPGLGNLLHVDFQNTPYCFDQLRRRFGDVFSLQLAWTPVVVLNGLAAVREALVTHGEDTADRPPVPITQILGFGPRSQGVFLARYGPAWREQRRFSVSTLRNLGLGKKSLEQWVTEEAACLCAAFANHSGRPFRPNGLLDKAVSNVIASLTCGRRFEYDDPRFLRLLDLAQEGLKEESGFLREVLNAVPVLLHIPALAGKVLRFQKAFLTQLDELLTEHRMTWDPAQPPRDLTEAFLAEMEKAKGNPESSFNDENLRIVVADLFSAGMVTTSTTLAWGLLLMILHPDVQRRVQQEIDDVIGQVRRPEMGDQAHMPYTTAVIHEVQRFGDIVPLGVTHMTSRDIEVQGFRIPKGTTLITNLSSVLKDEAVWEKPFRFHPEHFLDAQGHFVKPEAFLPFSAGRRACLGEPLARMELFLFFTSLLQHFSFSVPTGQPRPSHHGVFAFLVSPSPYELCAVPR
T4 sequence (Q12809 whole entry): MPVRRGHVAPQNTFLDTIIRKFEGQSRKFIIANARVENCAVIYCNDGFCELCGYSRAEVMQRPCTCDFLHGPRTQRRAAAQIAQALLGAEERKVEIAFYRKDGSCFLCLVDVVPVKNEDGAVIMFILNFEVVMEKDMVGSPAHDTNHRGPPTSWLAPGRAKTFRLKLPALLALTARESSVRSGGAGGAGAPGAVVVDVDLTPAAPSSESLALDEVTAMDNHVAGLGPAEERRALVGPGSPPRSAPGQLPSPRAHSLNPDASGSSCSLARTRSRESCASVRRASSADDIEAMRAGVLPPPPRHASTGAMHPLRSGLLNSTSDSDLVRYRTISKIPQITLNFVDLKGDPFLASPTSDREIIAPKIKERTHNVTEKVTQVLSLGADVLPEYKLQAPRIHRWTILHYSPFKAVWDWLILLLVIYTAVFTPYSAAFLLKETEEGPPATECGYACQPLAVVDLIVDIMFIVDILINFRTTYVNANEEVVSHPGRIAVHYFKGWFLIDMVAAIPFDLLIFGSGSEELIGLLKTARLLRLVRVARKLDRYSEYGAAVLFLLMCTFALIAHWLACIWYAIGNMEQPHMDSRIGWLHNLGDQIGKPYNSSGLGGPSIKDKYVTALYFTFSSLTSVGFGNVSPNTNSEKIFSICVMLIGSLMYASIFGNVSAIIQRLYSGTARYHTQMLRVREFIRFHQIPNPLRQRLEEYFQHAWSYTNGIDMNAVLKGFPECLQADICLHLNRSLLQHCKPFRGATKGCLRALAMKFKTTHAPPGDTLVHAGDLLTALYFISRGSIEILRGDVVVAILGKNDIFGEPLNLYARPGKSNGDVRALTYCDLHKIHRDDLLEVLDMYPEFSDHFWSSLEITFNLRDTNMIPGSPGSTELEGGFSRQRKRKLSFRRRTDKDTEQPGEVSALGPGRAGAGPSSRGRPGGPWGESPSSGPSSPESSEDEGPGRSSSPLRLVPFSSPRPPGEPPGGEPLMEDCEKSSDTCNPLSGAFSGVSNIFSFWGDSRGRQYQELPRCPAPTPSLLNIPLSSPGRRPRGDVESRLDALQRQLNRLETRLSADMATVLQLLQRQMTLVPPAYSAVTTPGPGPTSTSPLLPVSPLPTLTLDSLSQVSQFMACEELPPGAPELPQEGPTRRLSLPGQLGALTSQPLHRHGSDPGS

As for `CC1(C)C=Cc2c(C(=O)OCCN3CCOCC3)c(O)c3ccccc3c2O1` [6d, 2-Morpholinoethyl 6-hydroxy-2,2-dimethyl-2H-benzo[h]chromene-5-carboxylate], the inhibition at 10 µM in series [1] was found to be 26.5 ± 5%; in [3], 46.3 ± 6.2%. In addition, the “CYP Inhibition (% of Control) 2C9” value at CYP2C9 is listed as 99 % of Control. For the same compound, the “CYP Inhibition (% of Control) 2D6” value at CYP2D6 is listed as 75 % of Control. On CYP2C19, the “CYP Inhibition (% of Control) 2C19” value was 68 % of Control. Further, on hERG channel, the IC50 was > 10 µM. Moreover, in series [2], the “Metabolic Stability (% Remain, 30 min) Dog” value is on record as 45 % Remain. The “Metabolic Stability (% Remain, 30 min) Human” value in [4] was determined as 83 % Remain.
As for `CC1(C)C=Cc2c(C(=O)OCCN3CCOCC3)c(O)c3cc(C(F)(F)F)ccc3c2O1` [15c, 2-Morpholinoethyl 6-hydroxy-2,2-dimethyl-8-(trifluoromethyl)-2H-benzo[h]chromene-5-carboxylate], the inhibition at 10 µM in series [1] worked out at 50.3 ± 5.7%; in [3] it was 46 ± 7.6%. In addition, the solubility at 24 h in series [5] is > 10 mM. On CYP2C9, the “CYP Inhibition (% of Control) 2C9” value was 97 % of Control. Further, the inhibition at 15 min, 10 μM on CYP2C9 (human, liver microsomes, pH 7.4, probe tolbutamide (4-hydroxylation), at 10 μM drug concentration, read-out: % inhibition of CYP 2C9) is < 50%; on CYP2D6 (human, liver microsomes, pH 7.4, probe dextromethorphan (O-demethylation), at 10 μM drug concentration, read-out: % inhibition of CYP 2D6) it was < 50%; on CYP2C19 (human, liver microsomes, pH 7.4, probe S-mephenytoin (4-hydroxylation), at 10 μM drug concentration, read-out: % inhibition of CYP 2C19), < 50%. Besides, on CYP2D6, the “CYP Inhibition (% of Control) 2D6” value is reported as 92 % of Control. Moreover, the “CYP Inhibition (% of Control) 2C19” value at CYP2C19 was 93 % of Control. Besides, the “Metabolic Stability (% Remain, 30 min) Dog” value in series [2] was found to be 86 % Remain. Further, the “Metabolic Stability (% Remain, 30 min) Human” value in series [4] was 84 % Remain.
